According to publication PMC8123621, “Development of Novel Potential Pleiotropic Compounds of Interest in Alzheimer’s Disease Treatment through Rigidification Strategy” (Molecules, 2021):

What was measured:
[1] = biological target: T1, hAChE (AChE from human erythrocytes) (Homo sapiens, UniProt P22303); experiment: biochemical; details: for inhibition at 1 µM: read-out: hAChE % Inhibition at 10^−6 M; for IC50: mean ± SEM of three experiments, read-out: hAChE IC50 (nM) (n = 3)
T1 construct: AChE from human erythrocytes; purchased Sigma Aldrich; host or cells: human erythrocytes (tissue-derived enzyme)
Experimental: (§1) The inhibitory activity of novel analogs towards hAChE was evaluated according to the Ellman test.
Inhibitory capacity of compounds on AChE biological activity was evaluated through the use of the spectrometric method of Ellman. Acetylthiocholine iodide and 5,5-dithiobis-(2-nitrobenzoic) acid (DTNB) were purchased from Sigma Aldrich. AChE from human erythrocytes (buffered aqueous solution, ≥500 units/mg protein (BCA), Sigma Aldrich) was diluted in 20 mM HEPES buffer pH 8, 0.1% Triton X-100 such as to have enzyme solution with 0.25 unit/mL enzyme activity. In the procedure, 100 μL of 0.3 mM DTNB dissolved in phosphate buffer pH 7.4 were added into the 96 wells plate followed by 50 μL of test compound solution and 50 μL of enzyme ([…]). After 5 min of preincubation at 25 °C, the reaction was then initiated by the injection of 50 μL of 1 mM acetylthiocholine iodide solution. […] Assays were performed with a blank containing all components except acetylthiocholine, in order to account for non-enzymatic reaction. The reaction slopes were compared and the percent inhibition due to the presence of test compounds was calculated by the following expression: 100 − (vi/v0 × 100) where vi is the rate calculated in the presence of inhibitor and v0 is the enzyme activity.

[2] = biological target: T2, human 5-HT4R (5-HT4(b) membrane preparations) (Homo sapiens, UniProt Q13639); experiment: h5-HT4R radioligand displacement ([3H]-GR113808); type: binding; details: for inhibition at 1 µM: 10^−6 M, 0.5 nM [3H]-GR113808
T2 construct: purchased Eurofins HTS110M
Experimental: as §1
At the end of the incubation, homogenates were filtered through Whatman GF/C filters (Alpha Biotech) presoaked with 0.5% polyethylenimine using a Brandel cell harvester. Filters were subsequently washed three times with 1 mL of ice-cold 25 mM Tris buffer (pH 7.4, 4 °C). Non-specific binding was evaluated in parallel in the presence of 30 µM serotonin.
(§2) For some of these compounds, affinity constants were calculated from five-point inhibition curves using the GraphPad Prism 6 software and expressed as Ki ± SD.

human 5-HT6 receptors = biological target: T3, human 5-HT6 receptors (Homo sapiens, UniProt P50406); experiment: h5-HT6R radioligand displacement ([3H]-LSD); type: binding; details: 10^−6 M; 2.5 nM [3H]-LSD
T3 construct: purchased Perkin Elmer RBHS6M; host or cells: HEK-293 cells, transient expression
Experimental: as §1
Drugs were evaluated through their possibility to compete for the binding of [^3H]-LSD on membranes of HEK-293 cells transiently expressing the human 5-HT6 receptors (ref. RBHS6M, Perkin Elmer). […] At the end of the incubation, the homogenates were then filtered through Whatman GF/C filters and washed five times with ice-cold 25 mM Tris-HCl buffer. Non-specific binding was evaluated in the presence of 100 µM serotonin. Radioactivity associated to proteins was then quantified and expressed as the percentage of inhibition of the drugs under study.
as §2

[3] = tested on: scopolamine induced deficit; design: method as in PMID 31316368; details: model of scopolamine induced deficit; cited from earlier work

T3 sequence (P50406 whole entry): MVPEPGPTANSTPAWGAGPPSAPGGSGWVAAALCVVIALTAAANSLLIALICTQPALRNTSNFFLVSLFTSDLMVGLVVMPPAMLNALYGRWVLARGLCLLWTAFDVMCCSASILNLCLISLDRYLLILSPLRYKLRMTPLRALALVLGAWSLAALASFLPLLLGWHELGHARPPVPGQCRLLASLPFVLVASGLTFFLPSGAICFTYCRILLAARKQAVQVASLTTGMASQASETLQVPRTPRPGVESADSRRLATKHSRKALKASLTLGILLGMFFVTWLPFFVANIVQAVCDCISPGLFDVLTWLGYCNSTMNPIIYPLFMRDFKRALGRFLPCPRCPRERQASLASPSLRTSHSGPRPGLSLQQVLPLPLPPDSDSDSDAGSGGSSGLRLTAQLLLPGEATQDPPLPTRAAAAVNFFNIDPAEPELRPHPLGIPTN
T2 sequence (Q13639 whole entry): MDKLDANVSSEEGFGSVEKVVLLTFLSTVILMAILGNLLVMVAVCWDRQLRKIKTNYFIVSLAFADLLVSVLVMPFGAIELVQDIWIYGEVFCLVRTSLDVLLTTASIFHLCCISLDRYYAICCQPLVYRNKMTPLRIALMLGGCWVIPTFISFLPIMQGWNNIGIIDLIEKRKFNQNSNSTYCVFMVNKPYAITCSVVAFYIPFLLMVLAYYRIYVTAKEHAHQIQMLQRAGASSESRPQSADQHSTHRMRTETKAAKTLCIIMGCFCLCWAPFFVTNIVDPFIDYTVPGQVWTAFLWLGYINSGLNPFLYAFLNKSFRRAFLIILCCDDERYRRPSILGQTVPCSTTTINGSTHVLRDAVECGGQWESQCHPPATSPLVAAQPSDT
T1 sequence (P22303 32-617 isoform P22303-2 limits assumed): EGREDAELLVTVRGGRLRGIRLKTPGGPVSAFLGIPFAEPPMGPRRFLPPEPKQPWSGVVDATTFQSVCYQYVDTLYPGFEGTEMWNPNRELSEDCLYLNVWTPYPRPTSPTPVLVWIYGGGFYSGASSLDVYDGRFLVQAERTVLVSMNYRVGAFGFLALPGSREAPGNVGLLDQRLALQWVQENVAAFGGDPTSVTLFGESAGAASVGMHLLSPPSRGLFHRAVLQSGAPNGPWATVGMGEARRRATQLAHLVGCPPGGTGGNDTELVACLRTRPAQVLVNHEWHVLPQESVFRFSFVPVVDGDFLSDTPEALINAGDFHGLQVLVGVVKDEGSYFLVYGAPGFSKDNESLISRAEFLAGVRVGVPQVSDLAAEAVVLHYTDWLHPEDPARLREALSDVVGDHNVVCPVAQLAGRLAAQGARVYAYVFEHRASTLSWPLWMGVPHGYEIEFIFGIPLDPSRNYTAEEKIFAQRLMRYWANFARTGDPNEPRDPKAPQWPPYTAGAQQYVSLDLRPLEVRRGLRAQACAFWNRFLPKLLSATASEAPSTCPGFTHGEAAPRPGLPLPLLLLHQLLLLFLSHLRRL

SMILES	inhibition at 1 µM [1] [%]	inhibition at 1 µM [2] [%]	inhibition at 1 µM (human 5-HT6 receptors) [%]	IC50 [1] [nM]	in vivo anti-amnesic effect [3]	Ki [2] [nM]
COc1cc(N)c(Cl)cc1-c1nn(C)cc1CC1CCN(CC2CCCCC2)CC1 [3a, 2-chloro-4-(4-((1-(cyclohexylmethyl)piperidin-4-yl)methyl)-1-methyl-1H-pyrazol-3-yl)-5-methoxyaniline]	34	34	2	–	–	–
COc1cc(N)c(Cl)cc1-c1nn(C)cc1CC1CCN(Cc2cccc(C)c2)CC1 [3b, 2-chloro-5-methoxy-4-(1-methyl-4-((1-(3-methylbenzyl)piperidin-4-yl)methyl)-1H-pyrazol-3-yl)aniline]	76	20	68	110 ± 4	–	–
COc1cc(NC(C)=O)c(Cl)cc1-c1cc(OCC2CCN(Cc3cccc(C)c3)CC2)n(C)n1 [12b, N-(2-chloro-5-methoxy-4-(1-methyl-5-((1-(3-methylbenzyl)piperidin-4-yl)methoxy)-1H-pyrazol-3-yl)phenyl)acetamide]	15	9	0	–	–	–
Cc1cccc(CN2CCC(COc3cc(-c4ccccc4)nn3C)CC2)c1 [12c, 4-(((1-methyl-3-phenyl-1H-pyrazol-5-yl)oxy)methyl)-1-(3-methylbenzyl)piperidine]	15	10	6	–	–	–
COc1ccc(-c2cc(OCC3CCN(Cc4cccc(C)c4)CC3)n(C)n2)cc1OC [12d, 4-(((3-(3,4-dimethoxyphenyl)-1_methyl-1H-pyrazol-5-yl)oxy)methyl)-1-(3-methylbenzyl)piperidine]	6	9	9	–	–	–
COc1cc(N)c(Cl)cc1C(=O)CCC1CCN(CC2CCCCC2)CC1 [Donecopride, donecopride, reference compound]	96	100	30	–	–	–
Fc1ccc2c(CCNCc3cccc(OCC(F)(F)C(F)F)c3)c[nH]c2c1 [Idalopirdine, idalopirdine, reference compound]	–	–	106	–	–	–
COc1cc(N)c(Cl)cc1C(=O)CCC1CCN(Cc2cccc(C)c2)CC1 [MR33372, reference compound]	–	98	80	–	anti-amnesic effect	–
CCCCN1CCC(CCC(=O)c2cc(Cl)c(N)cc2OC)CC1 [RS67333, reference compound]	–	100	–	–	–	–
COc1cc(NC(C)=O)c(Cl)cc1-c1nn(C)cc1CC1CCN(CC2CCCCC2)CC1 [compound 6, N-(2-chloro-4-(4-((1-(cyclohexylmethyl)piperidin-4-yl)methyl)-1-methyl-1H-pyrazol-3-yl)-5-methoxyphenyl)acetamide]	31	16	0	–	–	–
COc1cc(NC(C)=O)c(Cl)cc1C(=O)CCC1CCN(CC2CCCCC2)CC1 [compound 7, N-(2-chloro-4-(3-(1-(cyclohexylmethyl)piperidin-4-yl)propanoyl)-5-methoxyphenyl)acetamide]	98	94	–	34 ± 5	–	300
